Data from patent US9120728B2, “Modulators of cortical dopaminergic- and NMDA-receptor-mediated glutamatergic neurotransmission” (INTEGRATIVE RESEARCH LABORATORIES SWEDEN AB, priority 2011, dated 2015).

Legend:
[1] = system: DOPAC (3,4-dihydroxyphenylacetic acid) in the rat striatum; assay: Increase of DOPAC (3,4-dihydroxyphenylacetic acid) in the rat striatum after systemic administration; format: in vivo; conditions: sc, estimated ED50 on increase of DOPAC in rat striatum, dose range 0-100 μmol/kg s.c., curve fitting
Excerpt: The increased turnover of dopamine in the terminal areas of the ascending dopaminergic projections of the mammalian brain can be illustrated by measuring of changes in biochemical indices in the brain with the characteristic features of dopamine antagonists, e.g. producing increases in concentrations of dopamine metabolites such as 3,4-dihydroxyphenyl-acetic acid (DOPAC) in the striatum.
After the behavioural activity sessions, the rats are decapitated and their brains rapidly taken out and put on an ice-cold petri-dish. The limbic forebrain, the striatum, the frontal cortex and the remaining hemispheral parts of each rat are dissected and frozen. Each brain part is subsequently analyzed with respect to its content of monoamines and their metabolites.
The monoamine transmitter substances (NA (noradrenaline), DA (dopamine), 5-HT (serotonin)) as well as their amine (NM (normethanephrine), 3-MT (3-methoxytyramine)) and acid (DOPAC (3,4-dihydroxyphenylacetic acid), 5-HIAA (5-hydroxyindoleacetic acid), HVA (homovanillic acid)) metabolites are quantified in brain tissue homogenates by HPLC separations and electrochemical detection
The analytical method is based on two chromatographic separations dedicated for amines or acids. Two chromatographic systems share a common auto injector with a 10-port valve and two sample loops for simultaneous injection on the two systems. Both systems are equipped with a reverse phase column (Luna C18(2), dp 3 μm, 50×2 mm i.d., Phenomenex) and electrochemical detection is accomplished at two potentials on glassy carbon electrodes (MF-1000, Bioanalytical Systems, Inc.). The column effluent is passed via a T-connection to the detection cell or to a waste outlet. This is accomplished by two solenoid valves, which block either the waste or detector outlet. By preventing the chromatographic front from reaching the detector, better detection conditions are achieved. The aqueous mobile phase (0.4 ml/min) for the acid system contains citric acid 14 mM, sodium citrate 10 mM, MeOH 15% (v/v) and EDTA 0.1 mM. Detection potentials relative to Ag/AgCl reference are 0.45 and 0.60V. […] Detection potentials relative to Ag/AgCl reference are 0.45 and 0.65V.
ED50 value for the increase of DOPAC in striatum is calculated by curve fitting. The evaluation is based on 40 animals over the dose range 0, 3.7, 11, 33 and 100 μmol/kg s.c. in two combined experiments. The DOPAC levels are normalised to control and fitted by least square minimization to the function “End-(End-Control)/(1+(dose/ED50)^slope)”. The four parameters (Control, End, ED50 and Slope) are fitted with the restrictions: ED50>0, 0.5<Slope<3, 350<End<400% of control. To estimate confidence levels for the parameters, the fit is repeated 100 times with a random evenly distributed squared weight (0 to 1) for every measurement value. Presented ED50-ranges cover 95% of these values.

[2] = system: Arc gene expression; assay: Increase of Arc gene expression (Arc mRNA, real-time PCR) in rat striatum and cortex; format: in vivo; conditions: estimated ED50 on increase of Arc gene expression
Experimental: To investigate potential effects of compounds of the present invention on cortical and striatal NMDA receptor related synaptic signalling, Arc mRNA induction was assessed upon acute administration of a compound of the present invention. […]
Total RNA is prepared by the guanidin isothiocyanate method reported by Chomczynski & Sacchi [Chomczynski P & Sacchi N; Anal. Biochem. 1987 162 156-159]. […] The sample concentration was determined spectrophotometrically by a NanoDrop ND-1000. A quality indicator number and an integrity number of r-RNA were measured with an Experion (Bio-Rad) on random samples. […]
For real-time PCR measurements, 0.7 μl of the cDNA reaction was amplified in a 25 μl reaction mixture containing 1×PCR buffer, 0.2 mM dNTP, 3.7 mM MgCl2, 0.15 mM SYBR green, 0.4 μM of each primer, and 1U JumpStart Taq DNA polymerase. Real-time PCR was measured on CFX96 (Biorad) using the following settings for all genes, 60 s pre-incubation at 95° C., followed by 40 cycles of denaturation at 95° C. for 10 s, annealing at 56° C. for 10 s, and elongation at 72° C. for 10 s.
Initial DNA amounts were quantified by a standard curve constructed for every gene using 6 serial 4-fold dilutions of purified PCR products. […]
Arc gene amounts were normalised using the geometric mean of the amounts of the two house-keeping genes assessed (HPRT and cyclophilin A). […]

## CCCNCCOc1cc(F)cc(S(C)(=O)=O)c1 [Example 1, N-[2-(3-fluoro-5-methylsulfonyl-phenoxy)ethyl]propan-1-amine]
[1]
  ED50: 8.5 µmol/kg
[2]; rat (prefrontal) cortex, evaluated to be below the lowest dose
  ED50: < 11 µmol/kg
[2]; sc, rat striatum, systemic administration, 0-100 μmol/kg s.c.
  ED50: 13 µmol/kg
